Assay [1] has as its target T1, LSD1 (Homo sapiens, UniProt O60341).
T1 construct: made in house; host or cells: Escherichia coli Rosetta 2 (pET15b)
The assay can be described thus: SPR biosensor interaction kinetic assay with immobilized LSD1 (15 °C, TBS-T with DTT). It is filed as binding.

Assay [2] addresses T1, LSD1. The assay can be described thus: HRP-coupled fluorescence LSD1 demethylation activity and inhibition assay, substrate H3_1-21 K4(Me). It is filed as biochemical.
The mark [3] stands for this setting: 100 μM, supplement sheet SMILES and Activity, read-out: Inhibition at 100 μM (%).

Like-named read-outs stand apart in the source and are kept apart here. Ends that are not written are not given here. Bounds are passed on as bounds.

`CSCC[C@H](NC(=O)[C@@H](NC(=O)[C@H](CCCNC(=N)N)NC(=O)[C@H](C)N)[C@@H](C)O)C(=O)N[C@@H](CCC(N)=O)C(=O)N[C@H](C(=O)N[C@@H](C)C(=O)N[C@@H](CCCNC(=N)N)C(=O)N[C@@H](CCCCN)C(=O)N[C@@H](CO)C(=O)N[C@H](C(=O)NCC(=O)NCC(=O)N[C@@H](CCCCN)C(=O)N[C@@H](C)C(=O)O)[C@@H](C)O)[C@@H](C)O` [Peptide 2] yielded a Kd at LSD1 [1] of 5 µM. In the case of `CSCC[C@H](NC(=O)[C@@H](NC(=O)[C@H](CCCNC(=N)N)NC(=O)[C@H](C)N)[C@@H](C)O)C(=O)N[C@@H](CCC(N)=O)C(=O)N[C@H](C(=O)N[C@@H](C)C(=O)N[C@@H](CCCNC(=N)N)C(=O)N[C@@H](CCCCN)C(=O)N[C@@H](CO)C(=O)N[C@H](C(=O)O)[C@@H](C)O)[C@@H](C)O` [Peptide 4], the Kd on LSD1 [1] (KD, SPR, immobilized LSD1, 15 °C, ni = no interaction observed, ns = high nonspecific binding, weak interactions only approximated, highest concentration 200 μM) is approximately 140 µM. This compound also showed an IC50 against LSD1 [2] of more than 100 µM.

On to `CSCC[C@H](NC(=O)[C@@H](NC(=O)[C@H](CCCNC(=N)N)NC(=O)[C@H](C)N)[C@@H](C)O)C(=O)N[C@@H](CCC(N)=O)C(=O)N[C@H](C(=O)N[C@@H](C)C(=O)N[C@@H](CCCNC(=N)N)C(=O)N[C@@H](CCCCN)C(=O)O)[C@@H](C)O` [Peptide 5], for which the Kd on LSD1 [1] was more than 200 µM. For `C[C@H](N)C(=O)N[C@@H](CCCNC(=N)N)C(=O)N[C@H](C(=O)N[C@@H](CCCCN)C(=O)N[C@@H](CCC(N)=O)C(=O)N[C@H](C(=O)N[C@@H](C)C(=O)N[C@@H](CCCNC(=N)N)C(=O)N[C@@H](CCCCN)C(=O)N[C@@H](CO)C(=O)N[C@H](C(N)=O)[C@@H](C)O)[C@@H](C)O)[C@@H](C)O` [Peptide 9], on LSD1 [1], the Kd is more than 100 µM. At LSD1 [1], `CCCC[C@H](NC(=O)[C@@H](NC(=O)[C@H](CCCNC(=N)N)NC(=O)[C@H](C)N)[C@@H](C)O)C(=O)N[C@@H](CCC(N)=O)C(=O)N[C@H](C(=O)N[C@@H](C)C(=O)N[C@@H](CCCNC(=N)N)C(=O)N[C@@H](CCCCN)C(=O)N[C@@H](CO)C(=O)N[C@H](C(N)=O)[C@@H](C)O)[C@@H](C)O` [Peptide 15, ART(Nle)QTARKST-NH2] showed a dissociation constant (Kd) of more than 200 µM. For `CCCCCC[C@H](NC(=O)[C@@H](NC(=O)[C@H](CCCNC(=N)N)NC(=O)[C@H](C)N)[C@@H](C)O)C(=O)N[C@@H](CCC(N)=O)C(=O)N[C@H](C(=O)N[C@@H](C)C(=O)N[C@@H](CCCNC(=N)N)C(=O)N[C@@H](CCCCN)C(=O)N[C@@H](CO)C(=O)N[C@H](C(N)=O)[C@@H](C)O)[C@@H](C)O` [Peptide 16, ART(Aoc)QTARKST-NH2], the Kd at LSD1 [1] is more than 200 µM. `C[C@H](N)C(=O)N[C@@H](CCCNC(=N)N)C(=O)N[C@H](C(=O)N[C@@H](CCc1ccccc1)C(=O)N[C@@H](CCC(N)=O)C(=O)N[C@H](C(=O)N[C@@H](C)C(=O)N[C@@H](CCCNC(=N)N)C(=O)N[C@@H](CCCCN)C(=O)N[C@@H](CO)C(=O)N[C@H](C(N)=O)[C@@H](C)O)[C@@H](C)O)[C@@H](C)O` [Peptide 17, ART(homoPhe)QTARKST-NH2] returned a Kd at LSD1 [1] of more than 200 µM.

The compound `CSCC[C@@H]1NC(=O)[C@@H](NC(=O)[C@H](CCCNC(=N)N)NC(=O)[C@H](C)N)C/C=C\C[C@@H](C(=O)N[C@@H](C)C(=O)N[C@@H](CCCNC(=N)N)C(=O)N[C@@H](CCCCN)C(=O)N[C@@H](CO)C(=O)N[C@H](C(N)=O)[C@@H](C)O)NC(=O)[C@H](CCC(N)=O)NC1=O` [Peptide 21, ARG^alyMQG^alyARKST-NH2] showed a Kd at LSD1 [1] of more than 100 µM. The inhibition at 100 µM at LSD1 [2] (setting [3]) and on LSD1 [2] (read-out: % inhibition at 100 μM) was 95% each time.

ARTMQTA-OH [Peptide 6, ARTMQTA-OH]: the Kd on LSD1 [1] is more than 200 µM.

The compound PRTMQTARKST-NH2 [Peptide 11] registered a Kd on LSD1 [1] of 10 µM. Also, the affinity at LSD1 [2], expressed as Ki, was 8 µM. Also, the inhibition at 100 µM on LSD1 [2] (setting [3]) came to 93%. Besides, on LSD1 [2] (enzyme activity assay, inhibition kinetics), the mode of inhibition result is “competitive inhibitor”. Further, the IC50 at LSD1 [2] (supplement sheet SMILES and Activity, read-out: IC50) amounted to 12.5 µM.

The record behind these values is publication PMC7057333 (ACS Omega, 2020).
